One series deals with eyes of six rabbits. The settings on record: cited from earlier work.
A further series deals with rabbit eyes. Conditions: cited from earlier work.
For series [1] the following is noted: approximately 0.5% to 1% added to balanced salt solutions; cited from earlier work.
The next series deals with rabbit skin. Conditions: undiluted test material; cited from earlier work.
In a further series the test system is skin. The settings on record: 6-day cumulative, cited from earlier work.
Another series has as its system human subjects. The settings on record: formulation containing 7.6% of Ethylhexyl Stearate, cited from earlier work.
In a further series the test system is rabbit's eyes. Conditions: cited from earlier work.
A further series relates to demodex mites. Put plainly: Presence of demodex mites in eyelash follicles of treated patients. It counts as in vivo, demodex folliculorum.
Series [2] deals with Demodex folliculorum-associated Oculocutaneous Rosacea. Conditions: oral, child, JAMA Dermatol 2014; cited from earlier work.
The next series concerns eye. The settings on record: human, in vivo. As to the method: As this invention is to be used topically, good absorption is achieved by using Propylene Glycol as a solvent for the ivermectin. According to the Cosmetic Ingredients Report Panel Meeting on Jun. 28-29, 2010, the ocular irritation of Propylene Glycol was determined using groups of 6 males and female New Zealand white albino rabbits.

The subject of series [3] is New Zealand white albino rabbits. Conditions: undiluted, groups of 6 rabbits; cited from earlier work.

Each structure is given as a SMILES string. Like-named read-outs stand apart in the source and are kept apart here.

In the case of `Cc1c(C)c2c(c(C)c1O)CCC(C)(CCCC(C)CCCC(C)CCCC(C)C)O2` (racemic) [dl-α-tocopherol], in the series with eyes of six rabbits (rabbit, in vivo), the “conjunctival irritation (redness)” value is “Weak to moderate conjunctival irritation” and the “time by which conjunctival irritation subsided” value is no more than 7 days. Besides, the corneal changes entry in the series on eyes of six rabbits (undiluted, six rabbits, eyes not rinsed) was “No corneal changes”.
Consider `O=C([O-])CN(CCN(CC(=O)[O-])CC(=O)O)CC(=O)O.[Na+].[Na+]` [Disodium EDTA, disodium EDTA], for which the “mucous membrane irritation classification” value in the series on rabbit eyes was “non-irritant”.
For `O=C(O)CN(CCN(CC(=O)O)CC(=O)O)CC(=O)O` [EDTA, Ethylenediaminetetraacetic acid], the toxicity result in series [1] is recorded as “not toxic”.
Take `CCCCCCCCCCCCCCCCCC(=O)OCC(CC)CCCC` (centres unmarked) [Ethylhexyl Stearate]: in the series on rabbit skin, the skin irritation entry is reported as “at most mildly irritating”. In addition, in the series on skin (10% aqueous solution), the “mean maximum irritation index (MMII)” value is 0.33 and the skin tolerance entry is listed as “relatively well tolerated”. Further, in the series on skin (undiluted test material), the “mean maximum irritation index (MMII)” value is recorded as 0.67 and the skin tolerance result is recorded as “poorly tolerated”. The phototoxicity entry with human subjects (10 subjects) is “not phototoxic”. Besides, the photosensitisation entry in the series with human subjects (27 subjects, some slight reactions reported) was “not a photosensitizer”. Besides, the irritation and sensitization entry with human subjects (56 subjects) is listed as “not an irritant or sensitizer”. Moreover, the eye injury result with rabbit's eyes (undiluted test material) is recorded as “did not provoke any significant injury”. The “max Primary irritation Index (PII)” value with rabbit's eyes (undiluted, out of 100, at 1 h) is reported as 4.67.
For the compound `CC[C@H](C)[C@H]1O[C@]2(CC[C@@H]1C)C[C@@H]1C[C@@H](C/C=C(\C)[C@@H](O[C@H]3C[C@H](OC)[C@@H](O[C@H]4C[C@H](OC)[C@@H](O)[C@H](C)O4)[C@H](C)O3)[C@@H](C)/C=C/C=C3\CO[C@@H]4[C@H](O)C(C)=C[C@@H](C(=O)O1)[C@]34O)O2` [Ivermectin (Stromectol), ivermectin], in the series with demodex mites (Example 2 patient, oral 12 mg plus 4 subsequent doses, with Tea Tree Oil eyelid scrubs twice a day, over 2 months), the demodex mites entry is on record as “reduced in numbers but were not completely eliminated”. The “elimination of demodex mites” value with demodex mites (oral, a single dose, applicant's experience) is “does not eliminate the demodex mites”. The treatment outcome in series [2] is “successfully treated”.
Regarding `CC(O)CO` (centres unmarked) [Propylene Glycol], in the series with eye, the eye irritation result is “non-irritating”. In addition, the ocular irritation entry in [3] is “slight eye irritant”.

The values above are taken from patent US12257263B2, “Pharmaceutical compositions for demodex related blepharitis and eyelid crusting” (Tarsus Pharmaceuticals, Inc., priority 2014, dated 2025).
